Experimental data taken from patent publication US20100331269A1, “TRITERPENES DERIVATIVES AND USES THEREOF AS ANTITUMOR AGENTS OR ANTI-INFLAMMATORY AGENTS” (priority 2006, published 2010).

What was measured:
[1] = tested on: WS-1 human normal skin fibroblasts; assay: Cytotoxicity, resazurin metabolism assay, WS-1; type: cell-based; details: 48 h, mean ± SD
Description: (§1) Human lung carcinoma (A-549), human colon adenocarcinoma (DLD-1), human normal fibroblasts (WS1), mice melanoma (B16-F1), Human glioma (U-251), Human hepatocellular carcinoma (HEP G2), Human prostate adenocarcinoma (PC-3), Human ovary teratocarcinoma metastatic (PA-1), Human breast adenocarcinona metastatic (MDA-MB-231), Human breast adenocarcinoma (MCF-7) and Human malignant melanoma (SK-MEL-2) cell lines were obtained from the American Type Culture Collection (ATCC). All cell lines were cultured in minimum essential medium containing Earle's salts and L-glutamine (Mediatech Cellgro, Va.), to which was added 10% fetal bovine serum (Hyclone), vitamins (1×), penicillin (100 I.U./mL) and streptomycin (100 μg/mL), essential amino acids (1×) and sodium pyruvate (1×) (Mediatech Cellgro, Va.). Cells were kept at 37° C. in a humidified environment containing 5% CO2.
(§2) Exponentially growing cells were plated in 96-well microplates (Costar, Corning Inc.) at a density of 5×10^3 cells per well in 100 μL of culture medium and were allowed to adhere for 16 hours before treatment. Increasing concentrations of each compound in DMSO (Sigma-Aldrich) were then added (100 μL per well) and the cells were incubated for 48 h. […] Cytotoxicity was assessed using resazurin (O'Brien, J. et al., Eur. J. Biochem. 2000, 267, 5421-5426) on an automated 96-well Fluoroskan Ascent F1™ plate reader (Labsystems) using excitation and emission wavelengths of 530 nm and 590 nm, respectively. Fluorescence was proportional to the cellular metabolic activity in each well. Survival percentage was defined as the fluorescence in experimental wells compared to that in control wells after subtraction of blank values. Each experiment was carried out three times in triplicata. IC50 results were expressed as mean±standard deviation.
(§3) The cytotoxicity of triterpenes (1-8) and corresponding glycosides (9-30) (Table 2 below) as well as of germanicane-type triterpenes and glycosides (31-44) (Table 3 below) was assessed towards human cancer (A-549, DLD-1), mouse melanoma (B16-F1) and human normal skin fibroblast (WS1) cell lines using the resazurin reduction test (RTT test) as previously described (O'Brien, J. et al., Eur. J. Biochem. 2000, 267, 5421-5426). Measurements of fluorescence were carried out after 48 continuous hours of contact between compounds and cells. Results presented in Tables 2 and 3 below express the concentration inhibiting 50% of the cell growth (IC50). Known for its activity against A-549, betulinic acid (3) was used as a positive control in this experimentation. […] The cytotoxic activity of some of these compounds was also assessed using the Hoechst DNA assay (Table 4 below).

B16-F1 cells = assay: Cytotoxicity, Hoechst DNA assay, B16-F1; type: cell-based, mouse; details: ± SD
Description: as §1, §3

[2] = tested on: SK-Mel-2 human melanoma cells; assay: Cytotoxicity, resazurin metabolism assay, SK-Mel-2; type: cell-based; details: mean ± SD
Description: as §1, §2
(§4) Compounds presented in Table 5 below were also tested in the following tumour cell lines: U-251 (Human glioma), HEP G2 (Human hepatocellular carcinoma), PC-3 (Human prostate adenocarcinoma), PA-1 (Human ovary teratocarcinoma metastatic), MDA-MB-231 (Human breast adenocarcinona metastatic), MCF-7 (Human breast adenocarcinoma) and SK-MEL-2 (Human malignant melanoma).

[3] = tested on: PA-1 human ovary teratocarcinoma cells; assay: Cytotoxicity, resazurin metabolism assay, PA-1; type: cell-based; details: mean ± SD
Description: as §1, §2, §4

U-251 human glioma cells = assay: Cytotoxicity, resazurin metabolism assay, U-251; type: cell-based; details: mean ± SD
Description: as §1, §2, §4

DLD-1 cells = assay: Cytotoxicity, Hoechst DNA assay, DLD-1; type: cell-based, human; details: ± SD
Description: as §1, §3

[4] = tested on: B16-F1 mouse melanoma cells; assay: Cytotoxicity, resazurin metabolism assay, B16-F1; type: cell-based; details: 48 h, mean ± SD
Description: as §1, §2, §3

WS-1 cells = assay: Cytotoxicity, Hoechst DNA assay, WS-1; type: cell-based, human; details: ± SD
Description: as §1, §3

[5] = tested on: MCF-7 human breast adenocarcinoma cells; assay: Cytotoxicity, resazurin metabolism assay, MCF-7; type: cell-based; details: mean ± SD
Description: as §1, §2, §4

[6] = tested on: DLD-1 human colorectal adenocarcinoma cells; assay: Cytotoxicity, resazurin metabolism assay, DLD-1; type: cell-based; details: 48 h, mean ± SD
Description: as §1, §2, §3

[7] = tested on: PC-3 human prostate adenocarcinoma cells; assay: Cytotoxicity, resazurin metabolism assay, PC-3; type: cell-based; details: mean ± SD
Description: as §1, §2, §4

[8] = tested on: A-549 human lung carcinoma cells; assay: Cytotoxicity, resazurin metabolism assay, A-549; type: cell-based; details: 48 h, mean ± SD
Description: as §1, §2, §3

A-549 cells = assay: Cytotoxicity, Hoechst DNA assay, A-549; type: cell-based, human; details: ± SD
Description: as §1, §3

[9] = tested on: MDA-MB-231 human breast adenocarcinoma cells; assay: Cytotoxicity, resazurin metabolism assay, MDA-MB-231; type: cell-based; details: mean ± SD
Description: as §1, §2, §4

[10] = tested on: Hep G2 human hepatocellular carcinoma cells; assay: Cytotoxicity, resazurin metabolism assay, Hep G2; type: cell-based; details: mean ± SD
Description: as §1, §2, §4

Row | Structure (SMILES) | IC50 [1] [µM] | IC50 (B16-F1 cells) [µM] | IC50 [2] [µM] | IC50 [3] [µM] | IC50 (U-251 human glioma cells) [µM] | IC50 (DLD-1 cells) [µM] | IC50 [4] [µM] | IC50 (WS-1 cells) [µM] | IC50 [5] [µM] | IC50 [6] [µM] | IC50 [7] [µM] | IC50 [8] [µM] | IC50 (A-549 cells) [µM] | IC50 [9] [µM] | IC50 [10] [µM]
1 | C=C(C)[C@@H]1CC[C@]2(C(=O)OC)CC[C@]3(C)[C@H](CC[C@@H]4[C@@]5(C)CC[C@H](O[C@H]6OC[C@@H](O)[C@@H](O)[C@@H]6O)C(C)(C)[C@@H]5CC[C@]43C)[C@@H]12 [Compound 20, 3-O-α-D-Arabinopyranoside of Methyl Betulinate] | 12.5 ± 0.4 | 12.6 ± 0.5 | 16 ± 1 | 16 ± 4 | 15 ± 1 | 16 ± 0.6 | 13.3 ± 0.4 | 13.2 ± 0.7 | 21 ± 3 | 18 ± 1 | 17 ± 1 | 13.5 ± 0.6 | 11.7 ± 0.8 | 16.3 ± 0.8 | 15 ± 2
2 | C=C(C)[C@@H]1CC[C@]2(C(=O)O)CC[C@]3(C)[C@H](CC[C@@H]4[C@@]5(C)CC[C@H](O[C@H]6OC[C@@H](O)[C@@H](O)[C@@H]6O)C(C)(C)[C@@H]5CC[C@]43C)[C@@H]12 [Compound 23, 3-O-α-D-Arabinopyranoside of Betulinic Acid] | 47 ± 5 | 10.2 ± 0.6 | 62 ± 7 | 20 ± 2 | 70 ± 10 | 10 ± 1 | 11 ± 1 | 32 ± 2 | 45 ± 9 | 17 ± 3 | 110 ± 10 | 10 ± 2 | 5.7 ± 0.8 | 57 ± 6 | 66 ± 9
3 | C=C(C)C1CCC2(CO)CCC3(C)C(CCC4C5(C)CCC(OC6OCC(O)C(O)C6O)C(C)(C)C5CCC43C)C12 [Compound 14, 3-O-α-D-Arabinopyranoside of Betulin] | 59 ± 5 |  | 54 ± 3 | 41 ± 5 | 40 ± 7 |  | 38 ± 3 |  | 61 ± 7 | 63 ± 8 | 65 ± 6 | 41 ± 3 |  | 49.2 ± 0.9 | 38 ± 2
4 | C=C(C)C1CCC2(CO)CCC3(C)C(CCC4C5(C)CCC(OC6OC(C)C(O)C(O)C6O)C(C)(C)C5CCC43C)C12 [Compound 13, 3-O-α-L-Rhamnopyranoside of Betulin] | 33 ± 5 |  | 110 ± 20 | 180 ± 30 | 170 ± 40 |  | 18 ± 1 |  | 19 ± 4 | 50 ± 10 | 61 ± 6 | 22 ± 3 |  | 33 ± 2 | 11 ± 0.9
5 | C=C(C)[C@@H]1CC[C@]2(C(=O)OC)CC[C@]3(C)[C@H](CC[C@@H]4[C@@]5(C)CC[C@H](O[C@@H]6O[C@H](CO)[C@@H](O)[C@H](O)[C@H]6O)C(C)(C)[C@@H]5CC[C@]43C)[C@@H]12 [Compound 18, 3-O-β-D-Glucopyranoside of Methyl Betulinate] | 9.3 ± 0.2 | 7.2 ± 0.8 | 103 ± 4 | 60 ± 20 | 84 ± 2 | 4 ± 0.2 | 7.1 ± 0.3 | 12 ± 2 | 110 ± 6 | 3.93 ± 0.09 | 130 ± 30 | 8.4 ± 0.3 | 9.3 ± 0.6 | 101.7 ± 0.1 | 79 ± 5
6 | C=C(C)[C@@H]1CC[C@]2(C)CC[C@]3(C)[C@H](CC[C@@H]4[C@@]5(C)CC[C@H](O[C@@H]6O[C@H](CO)[C@@H](O)[C@H](O)[C@H]6O)C(C)(C)[C@@H]5CC[C@]43C)[C@@H]12 [Compound 9, 3-O-6-D-Glucopyranoside of lupeol] | 13.3 ± 0.5 | 18 ± 2 | 15.5 ± 0.6 | 13 ± 1 | 17.9 ± 0.7 | 19 ± 1 | 15 ± 0.7 | 20 ± 2 | 16.4 ± 0.5 | 14 ± 1 | 30 ± 2 | 14 ± 1 | 22 ± 2 | 20.9 ± 0.6 | 17.8 ± 0.2
7 | C=C(C)[C@@H]1CC[C@]2(C)CC[C@]3(C)[C@H](CC[C@@H]4[C@@]5(C)CC[C@H](O[C@H]6OC[C@@H](O)[C@@H](O)[C@@H]6O)C(C)(C)[C@@H]5CC[C@]43C)[C@@H]12 [Compound 11, 3-O-α-D-Arabinopyranoside of Lupeol] | 15.8 ± 0.8 | 28 ± 1 | 10 ± 0.8 | 9.8 ± 0.6 | 10.1 ± 0.2 | 69 ± 7 | 27 ± 2 | 24 ± 1 | 23 ± 2 | 50 ± 6 | 26 ± 3 | 28 ± 2 | 34 ± 2 | 11 ± 1 | 10 ± 0.9
8 | CC1(C)CC[C@]23CC[C@]4(C)[C@H](CC[C@@H]5[C@@]6(C)CC[C@H](O[C@@H]7O[C@H](CO)[C@H](O)[C@H](O)[C@H]7O)C(C)(C)[C@@H]6CC[C@]54C)[C@H]2[C@H]1OC3 [Compound 36, 3-O-β-D-Galactopyranoside of Allobetulin] | 30 ± 9 |  | 40 ± 3 | 45 ± 4 | 53 ± 4 |  |  |  | 60 ± 20 | 42 ± 9 | 45 ± 6 | 30 ± 10 |  | 44 ± 4 | 41 ± 10
9 | C=C(C)C1CCC2(C(=O)O)CCC3(C)C(CCC4C5(C)CCC(OC6OC(CO)C(O)C(O)C6O)C(C)(C)C5CCC43C)C12 [Compound 29, 3-O-β-D-Mannopyranoside of Betulinic Acid] | 16 ± 3 |  | 4.7 ± 0.6 | 2.2 ± 0.2 | 6 ± 2 |  |  |  | 20 ± 2 | 14.9 ± 0.5 | 27 ± 3 | 41 ± 4 |  | 21 ± 2 | 26 ± 2
